{
  "source": "ChEMBL document CHEMBL4813917",
  "about": "“2-((1-Phenyl-1H-1,2,3-triazol-4-yl)methyl)-2-azabicyclo[3.2.1]octan-3-one derivatives: Simplification and modification of aconitine scaffold for the discovery of novel anticancer agents” (Eur J Med Chem, 2021)",
  "key": {"LoVo [1]": {"test_system": "LoVo", "test": "Induction of apoptosis in human LoVo cells assessed as viable cells at 80 nM measured after 24 hrs by Annexin V/PI staining based flow cytometry method (reference value: 93.5%)", "format": "functional", "conditions": "read-out: Activity"}, "[2]": {"test": "Cytotoxicity against human MRC5 cells assessed as reduction in cell viability measured after 24 hrs by MTT assay", "format": "cell-based"}, "LoVo [3]": {"test_system": "LoVo", "test": "Induction of apoptosis in human LoVo cells assessed as decrease in Bcl-2 levels at 20 to 80 nM measured after 24 hrs by Western blot assay", "format": "functional, cell-based", "conditions": "dose 20-80 nM"}, "SW-620 [4]": {"test_system": "SW-620", "test": "Induction of apoptosis in human SW-620 cells assessed as necrotic cells at 20 nM measured after 24 hrs by Annexin V/PI staining based flow cytometry method (reference value: 3%)", "format": "functional"}, "[5]": {"test": "Cytotoxicity against human IOSE80 cells assessed as reduction in cell viability measured after 24 hrs by MTT assay", "format": "cell-based"}, "SW-620 [6]": {"test_system": "SW-620", "test": "Induction of apoptosis in human SW-620 cells assessed as early apoptotic cells at 20 nM measured after 24 hrs by Annexin V/PI staining based flow cytometry method (reference value: 1.7%)", "format": "functional"}, "SW-620 [7]": {"test_system": "SW-620", "test": "Induction of apoptosis in human SW-620 cells assessed as early apoptotic cells at 40 nM measured after 24 hrs by Annexin V/PI staining based flow cytometry method (reference value: 1.7%)", "format": "functional"}, "SW-620 [8]": {"test_system": "SW-620", "test": "Induction of apoptosis in human SW-620 cells assessed as viable cells at 80 nM measured after 24 hrs by Annexin V/PI staining based flow cytometry method (reference value: 94%)", "format": "functional", "conditions": "read-out: Activity"}, "LoVo [9]": {"test_system": "LoVo", "test": "Antiproliferative activity against human LoVo cells assessed as inhibition of cell proliferation measured after 24 hrs by MTT assay", "format": "functional, cell-based"}, "SW-620 [10]": {"test_system": "SW-620", "test": "Induction of apoptosis in human SW-620 cells assessed as early apoptotic cells at 80 nM measured after 24 hrs by Annexin V/PI staining based flow cytometry method (reference value: 1.7%)", "format": "functional"}, "LoVo [11]": {"test_system": "LoVo", "test": "Induction of apoptosis in human LoVo cells assessed as necrotic cells at 20 nM measured after 24 hrs by Annexin V/PI staining based flow cytometry method (reference value: 1.3%)", "format": "functional"}, "SGC-7901": {"test_system": "SGC-7901", "test": "Antiproliferative activity against human SGC-7901 cells assessed as inhibition of cell proliferation measured after 24 hrs by MTT assay", "format": "functional, cell-based", "conditions": "SGC-7901, 24 h"}, "LoVo [12]": {"test_system": "LoVo", "test": "Induction of apoptosis in human LoVo cells assessed as late apoptotic cells at 80 nM measured after 24 hrs by Annexin V/PI staining based flow cytometry method (reference value: 1.6%)", "format": "functional"}, "[13]": {"test": "Cytotoxicity against human NCM460 cells assessed as reduction in cell viability measured after 24 hrs by MTT assay", "format": "cell-based"}, "LoVo [14]": {"test_system": "LoVo", "test": "Induction of apoptosis in human LoVo cells assessed as increase in cleaved caspase-3 levels at 20 to 80 nM measured after 24 hrs by Western blot assay", "format": "functional, cell-based", "conditions": "dose 20-80 nM"}, "SW-620 [15]": {"test_system": "SW-620", "test": "Cell cycle arrest in human SW-620 cells assessed as decrease of cells in G2/M phase at 20 to 80 nM measured after 24 hrs by PI staining based flow cytometry method", "format": "functional", "conditions": "dose 20-80 nM"}, "[16]": {"target": "Heat shock protein HSP 90-alpha (Homo sapiens, UniProt P07900)", "test": "Inhibition of recombinant human N terminal his-tagged HSP90 alpha (1 to 732 residues) expressed in Escherichia coli measured after 60 mins by Flourescence polarization assay"}, "SW-620 [17]": {"test_system": "SW-620", "test": "Induction of apoptosis in human SW-620 cells assessed as increase in cleaved caspase-3 levels at 20 to 80 nM measured after 24 hrs by Western blot assay", "format": "functional, cell-based", "conditions": "dose 20-80 nM"}, "LoVo [18]": {"test_system": "LoVo", "test": "Inhibition of cell migration in human LoVo cells at 20 to 80 nM measured after 24 hrs by wound healing assay", "format": "functional, cell-based", "conditions": "dose 20-80 nM"}, "LoVo [19]": {"test_system": "LoVo", "test": "Induction of apoptosis in human LoVo cells assessed as increase in Bax levels at 20 to 80 nM measured after 24 hrs by Western blot assay", "format": "functional, cell-based", "conditions": "dose 20-80 nM"}, "[20]": {"test": "Cytotoxicity against human HPDE6c7 cells assessed as reduction in cell viability measured after 24 hrs by MTT assay", "format": "functional"}, "LoVo [21]": {"test_system": "LoVo", "test": "Induction of apoptosis in human LoVo cells assessed as viable cells at 40 nM measured after 24 hrs by Annexin V/PI staining based flow cytometry method (reference value: 93.5%)", "format": "functional", "conditions": "read-out: Activity"}, "[22]": {"test": "Cytotoxicity against human L02 cells assessed as reduction in cell viability measured after 24 hrs by MTT assay", "format": "cell-based"}, "SW-620 [23]": {"test_system": "SW-620", "test": "Induction of apoptosis in human SW-620 cells assessed as necrotic cells at 40 nM measured after 24 hrs by Annexin V/PI staining based flow cytometry method (reference value: 3%)", "format": "functional"}, "SW-620 [24]": {"test_system": "SW-620", "test": "Cell cycle arrest in human SW-620 cells assessed as accumulation of cells in G0/G1 phase at 20 to 80 nM measured after 24 hrs by PI staining based flow cytometry method", "format": "functional", "conditions": "dose 20-80 nM"}, "A549": {"test_system": "A549", "test": "Antiproliferative activity against human A549 cells assessed as inhibition of cell proliferation measured after 24 hrs by MTT assay", "format": "functional, cell-based", "conditions": "A549, 24 h"}, "SW-620 [25]": {"test_system": "SW-620", "test": "Inhibition of cell migration in human SW-620 cells at 20 to 80 nM measured after 24 hrs by wound healing assay", "format": "functional, cell-based", "conditions": "dose 20-80 nM"}, "SW-620 [26]": {"test_system": "SW-620", "test": "Induction of apoptosis in human SW-620 cells assessed as late apoptotic cells at 80 nM measured after 24 hrs by Annexin V/PI staining based flow cytometry method (reference value: 1.3%)", "format": "functional"}, "LoVo [27]": {"test_system": "LoVo", "test": "Induction of apoptosis in human LoVo cells assessed as early apoptotic cells at 80 nM measured after 24 hrs by Annexin V/PI staining based flow cytometry method (reference value: 1.6%)", "format": "functional"}, "SW-620 [28]": {"test_system": "SW-620", "test": "Induction of apoptosis in human SW-620 cells assessed as necrotic cells at 80 nM measured after 24 hrs by Annexin V/PI staining based flow cytometry method (reference value: 3%)", "format": "functional"}, "LoVo [29]": {"test_system": "LoVo", "test": "Induction of apoptosis in human LoVo cells assessed as early apoptotic cells at 20 nM measured after 24 hrs by Annexin V/PI staining based flow cytometry method (reference value: 1.6%)", "format": "functional"}, "[30]": {"test": "Cytotoxicity against human GES1 cells assessed as reduction in cell viability measured after 24 hrs by MTT assay", "format": "cell-based"}, "SW-620 [31]": {"test_system": "SW-620", "test": "Induction of apoptosis in human SW-620 cells assessed as viable cells at 20 nM measured after 24 hrs by Annexin V/PI staining based flow cytometry method (reference value: 94%)", "format": "functional", "conditions": "read-out: Activity"}, "[32]": {"test": "Toxicity in Balb/c mouse xenografted with human SW-620 cells assessed as changes in body weight at 5 mg/kg, ip measured after 21 days", "format": "organism-based", "conditions": "in vivo, 504 h, time 21 day"}, "LoVo [33]": {"test_system": "LoVo", "test": "Cell cycle arrest in human LoVo cells assessed as accumulation of cells in G0/G1 phase at 20 to 80 nM measured after 24 hrs by PI staining based flow cytometry method", "format": "functional", "conditions": "dose 20-80 nM"}, "SW-620 [34]": {"test_system": "SW-620", "test": "Induction of apoptosis in human SW-620 cells assessed as increase in Bax levels at 20 to 80 nM measured after 24 hrs by Western blot assay", "format": "functional, cell-based", "conditions": "dose 20-80 nM"}, "SW-620 [35]": {"test_system": "SW-620", "test": "Induction of apoptosis in human SW-620 cells assessed as decrease in Bcl-2 levels at 20 to 80 nM measured after 24 hrs by Western blot assay", "format": "functional, cell-based", "conditions": "dose 20-80 nM"}, "LoVo [36]": {"test_system": "LoVo", "test": "Induction of apoptosis in human LoVo cells assessed as necrotic cells at 80 nM measured after 24 hrs by Annexin V/PI staining based flow cytometry method (reference value: 1.3%)", "format": "functional"}},
  "note": "Active and inactive are the calls of the source. The calls are words filed in the database; no cut-off is given here.",
  "data": [
    {"smiles": "CC1(C)[C@H]2CC[C@]1(C)N(Cc1cn(-c3cccc(Br)c3)nn1)C(=O)C2", "values": [
      {"measurement": "viability at 0.08 µM", "setting": "LoVo [1]", "result": 61.7, "unit": "%"},
      {"measurement": "CC50 at 24 h", "setting": "[2]", "result": 38.8, "unit": "µM"},
      {"measurement": "Activity", "setting": "LoVo [3]", "result": "Active"},
      {"measurement": "Activity", "setting": "SW-620 [4]", "result": 2.5, "unit": "%"},
      {"measurement": "CC50 at 24 h", "setting": "[5]", "result": 9.55, "unit": "µM"},
      {"measurement": "Activity", "setting": "SW-620 [6]", "result": 5.1, "unit": "%"},
      {"measurement": "Activity", "setting": "SW-620 [7]", "result": 8.1, "unit": "%"},
      {"measurement": "viability at 0.08 µM", "setting": "SW-620 [8]", "result": 46.4, "unit": "%"},
      {"measurement": "IC50", "setting": "LoVo [9]", "result": 30, "unit": "nM"},
      {"measurement": "Activity", "setting": "SW-620 [10]", "result": 20.6, "unit": "%"},
      {"measurement": "Activity", "setting": "LoVo [11]", "result": 1.9, "unit": "%"},
      {"measurement": "IC50", "setting": "SGC-7901", "result": 120, "unit": "nM"},
      {"measurement": "Activity", "setting": "LoVo [12]", "result": 24.9, "unit": "%"},
      {"measurement": "CC50 at 24 h", "setting": "[13]", "result": 14.6, "unit": "µM"},
      {"measurement": "Activity", "setting": "LoVo [14]", "result": "Active"},
      {"measurement": "Activity", "setting": "SW-620 [15]", "result": "Active"},
      {"measurement": "IC50", "setting": "[16]", "result": 0.71, "unit": "nM"},
      {"measurement": "Activity", "setting": "SW-620 [17]", "result": "Active"},
      {"measurement": "inhibition", "setting": "LoVo [18]", "result": "Dose-Dependent Effect"},
      {"measurement": "Activity", "setting": "LoVo [19]", "result": "Active"},
      {"measurement": "CC50", "setting": "[20]", "result": 13.8, "unit": "µM"},
      {"measurement": "viability at 0.04 µM", "setting": "LoVo [21]", "result": 89.8, "unit": "%"},
      {"measurement": "CC50 at 24 h", "setting": "[22]", "result": 10.5, "unit": "µM"},
      {"measurement": "Activity", "setting": "SW-620 [23]", "result": 1.3, "unit": "%"},
      {"measurement": "Activity", "setting": "SW-620 [24]", "result": "Active"},
      {"measurement": "IC50", "setting": "A549", "result": 90, "unit": "nM"},
      {"measurement": "inhibition", "setting": "SW-620 [25]", "result": "Dose-Dependent Effect"},
      {"measurement": "Activity", "setting": "SW-620 [26]", "result": 29.3, "unit": "%"},
      {"measurement": "Activity", "setting": "LoVo [27]", "result": 7.4, "unit": "%"},
      {"measurement": "Activity", "setting": "SW-620 [28]", "result": 3.7, "unit": "%"},
      {"measurement": "Activity", "setting": "LoVo [29]", "result": 3, "unit": "%"},
      {"measurement": "CC50 at 24 h", "setting": "[30]", "result": 9.93, "unit": "µM"},
      {"measurement": "viability at 0.02 µM", "setting": "SW-620 [31]", "result": 83.9, "unit": "%"},
      {"measurement": "Activity", "setting": "[32]", "result": "Non-Toxic"},
      {"measurement": "Activity", "setting": "LoVo [33]", "result": "Active"},
      {"measurement": "Activity", "setting": "SW-620 [34]", "result": "Active"},
      {"measurement": "Activity", "setting": "SW-620 [35]", "result": "Active"},
      {"measurement": "Activity", "setting": "LoVo [36]", "result": 6, "unit": "%"}
    ]}
  ]
}
